Experiment: Sensory evaluation of sourness-masking effect in yoghurt drink by five special panelists
Settings: for Evaluation Result (sourness-masking effect): score 0-3, stored at 10° C. for 10 days
Procedure: The peptide mixture obtained in the above procedure 1 was centrifuged (20,000 G) to obtain an aqueous layer. The aqueous layer was treated with UF membranes of 20 nm, 5 kDa and 1 kDa, respectively, and permeate solutions were collected. Each permeate solution obtained through the UF membranes or the peptide mixture before treatment were added to a commercially available yoghurt drink. After the yoghurt drink was stored at 10° C. for 10 days, five special panelists conducted sensory evaluation regarding a sourness-masking effect. Note that each sample was prepared such that the addition amount is 0.1% calculated in terms of the peptide mixture. A commercially available yoghurt drink without addition was used as control. Evaluation was performed by scoring from 0 to 3 shown in Table 1 at 0.5 point intervals.
(§1) In the same manner as in the above procedure 2, the obtained 13 fractions were added to a commercially available yoghurt drink, respectively. After the yoghurt drink was stored at 10° C. for 10 days, five special panelists conducted sensory evaluation regarding a sourness-masking effect. Each sample was prepared such that the addition amount is 0.1% calculated in terms of the peptide mixture. The evaluation method is the same as in the above procedure 2.
as §1, with “four” for “13”
The five kinds of peptide identified in Example 1 and phenylalanine were added to a commercially available yoghurt drink, respectively. After the yoghurt drink was stored at 10° C. for 10 days, five special panelists conducted sensory evaluation regarding a sourness-masking effect. The peptide mixture obtained in Example 1-1 was added in an amount of 0.1%, the peptides and phenylalanine obtained in Example 1-5 were added in an amount of 20 ppb and the mixture of VP+LLL was added in an amount of 10 ppb each. The evaluation method was the same as in Example 1-2.
VP and LLL were mixed in the mixture ratio within the range from 1:9 to 9:1 and each mixture was added to a commercially available yoghurt drink in an amount of 0.01 ppm. After the yoghurt drink was stored at 10° C. for 10 days, five special panelists conducted sensory evaluation regarding a sourness-masking effect. The evaluation method is the same as in the Example 1-2.
VP, LLL and the mixture of equal parts of VP and LLL were added to a commercially available yoghurt drink in an amount of 0.001 ppm, 0.01 ppm and 0.1 ppm, respectively. After the yoghurt drink was stored at 10° C. for 10 days, five special panelists conducted sensory evaluation regarding a sourness-masking effect. The evaluation method is the same as in the Example 1-2.

[1] = Example 4, addition concentration 0.001 ppm
[2] = Example 4, addition concentration 0.01 ppm
[3] = Example 4, addition concentration 0.1 ppm

Molecule	Evaluation Result (sourness-masking effect) (Example 2, added at 20 ppb)	sourness-masking effect, in words (Example 2, added at 20 ppb)	Evaluation Result (sourness-masking effect) (Example 3, added at 0.01 ppm)	Evaluation Result (sourness-masking effect) [1]	Evaluation Result (sourness-masking effect) [2]	Evaluation Result (sourness-masking effect) [3]
N[C@@H](Cc1ccccc1)C(=O)O [F, phenylalanine, reference compound]	0.1					
Leu-Leu-Leu [LLL]	1.4	remarkable sourness-masking effect	1.3	0.3	1.4	1.5
Leu-Leu-Leu-Leu (LLLL; printed: Leu-Leu-Leu-Leu) [reference compound]	0.3					
Leu-Pro-Pro [LPP, reference compound]	0.3					
Val-Pro [VP]	1.3	remarkable sourness-masking effect	1.4	0.2	1.5	1.5
Val-Pro-Pro [VPP, reference compound]	0.2					

Source: patent publication US9901111B2, “Taste-improving peptide” (Takasago International Corporation, priority 2011, dated 2018)
